System: sporozoites of P. falciparum
Test: Inhibition of penetration of sporozoites into human hepatocytes
Format: cell-based
Conditions: sera of immunized C57BL/6 mice; 1:5 solution of sample; human hepatoma cells
Description: Human hepatoma cells were seeded at a concentration of 10^5 cells/chamber in Lab.-Tek plastic chambers (Miles) and cultivated for 24-48 hours
Then, to each chamber 25 μl was charged of a suspension containing 5-10^4 sporozoites of P. falciparum and 25 μl of a 1:5 solution of the sample under test.
The sporozoites were obtained from salivary glands of Anopheles stephensi infected with P. falciparum.
Two and six days later, the number of infected hepatocytes was determined by immunofluorescence by using monoclonal anti-P. falciparum CS protein antibodies.

(Asn--Ala--Asn--Pro)40 [(NANP)40]
inhibition of the penetration of the sporozoites of P. falciparum into the hepatic cells: < 86%

From patent US5225530A, “Polypeptide useful for the preparation of antimalarial vaccines and of diagnostic kits for the detection of malarial affections” (priority 1986, dated 1993)
